Measured values as given in the NIST ThermoML archive (doi:10.1021/je101131x).
± gives the expanded uncertainty stated by the source.

Conditions: Liquid

Structure (SMILES) | vapor or sublimation pressure (323.15 K) [kPa] | vapor or sublimation pressure (333.15 K) [kPa] | vapor or sublimation pressure (343.15 K) [kPa] | vapor or sublimation pressure (353.15 K) [kPa]
CC(=O)O [acetic acid] | 7.567 ± 0.41 | 12.04 ± 0.51 | 18.66 ± 0.67 | 28.2 ± 0.89
CCCOC(C)=O [propyl ethanoate] | 16.09 ± 0.61 | 24.01 ± 0.8 | 34.99 ± 1.1 | 49.92 ± 1.4
